Data taken from PMC11261597, “Three-Step Enzymatic Remodeling of Chitin into Bioactive Chitooligomers” (Journal of Agricultural and Food Chemistry, 2024).

Target: T1, BsPdaC (Bacillus subtilis, UniProt O34798)
T1 construct: gene pdaC
T1 sequence (O34798 278-467 limits assumed): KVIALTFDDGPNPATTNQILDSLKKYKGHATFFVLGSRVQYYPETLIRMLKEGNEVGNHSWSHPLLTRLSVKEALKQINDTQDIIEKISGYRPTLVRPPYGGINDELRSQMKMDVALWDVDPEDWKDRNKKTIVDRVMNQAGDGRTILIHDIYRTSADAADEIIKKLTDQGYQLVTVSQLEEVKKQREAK
Assay: deacetylation followed by HPLC-MS
Format: biochemical
Details: 2 mM substrate, 4 μM enzyme, PBS pH 7.5, 37 °C

Row | SMILES | deacetylation followed by HPLC-MS
1 | CC(=O)N[C@H]1[C@H](O[C@H]2[C@H](O)[C@@H](NC(C)=O)[C@H](O[C@H]3[C@H](O)[C@@H](NC(C)=O)C(O)O[C@@H]3CO)O[C@@H]2CO)O[C@H](CO)[C@@H](O[C@@H]2O[C@H](CO)[C@@H](O[C@@H]3O[C@H](CO)[C@@H](O)[C@H](O)[C@H]3NC(C)=O)[C@H](O)[C@H]2NC(C)=O)[C@@H]1O (some centres unmarked) [CH5] | BsPdaC exhibited an effective deacetylation of standard CH4 and CH5 substrates
2 | CC(=O)N[C@H]1[C@H](O[C@H]2[C@H](O)[C@@H](NC(C)=O)C(O)O[C@@H]2CO)O[C@H](CO)[C@@H](O[C@@H]2O[C@H](CO)[C@@H](O[C@@H]3O[C@H](CO)[C@@H](O)[C@H](O)[C@H]3NC(C)=O)[C@H](O)[C@H]2NC(C)=O)[C@@H]1O (some centres unmarked) [CH4, N,N′,N″,N‴-tetraacetylchitotetraose] | BsPdaC exhibited an effective deacetylation of standard CH4 and CH5 substrates
